Laboratory results reported in patent US8455523B2, “Compositions and methods for treating hyperlipidemias” (The Research Foundation of State University of New York, priority 2010, dated 2013).

How the values were obtained:
mice fed western diet = test: MTPi with or without pioglitazone or lovastatin in mice fed western diet for five weeks (Example III); conditions: for cellular cholesteryl esters (liver) / hepatic free cholesterol / hepatic triglycerides: MTPi vs control
Description: FIGS. 7a and 7b. Mice were fed western diet for five weeks. […] Livers were collected and used to measure MTP activity (A), triglyceride (B), total cholesterol (C), free cholesterol (D), esterified cholesterol (E) and free fatty acids (F).
FIGS. 8a and 8b. Plasma was obtained from animals described in FIG. 7 and used to measure triglyceride (A) and cholesterol (B) in apoB-lipoproteins. In addition, HDL cholesterol (C), plasma free fatty acids (D), ALT (E), and AST (F) levels were measured.

[1] = test system: hyperlipidemic bonnet macaques; test: MTP inhibitor with or without pioglitazone or lovastatin in western diet fed bonnet macaques; assay type: in vivo, bonnet macaque monkeys; conditions: for plasma cholesterol: then MTP inhibitor one month ± Pioglitazone or Lovastatin; for Hepatic cholesterol, total and free: biopsies
Description: FIG. 14. Bonnet Macaque monkeys fed ad libitum WD diet for 40 days and were administered MTPi, Lovastatin, (Lovas) or Pioglitazone (Pio) everyday for one month. A-D* represent comparisons to the MTPi alone group. E-I* represent comparisons between baseline and post biopsies.
Eleven (11) Male bonnet macaque monkeys were fed western diet for 40 days and treated with MTP inhibitor (BMS 2122122-01) with or without either Pioglitazone or Lovastatin for one month. Plasma samples were obtained at Day 0, 20, 40, 47, 54, 61 and 68 days. Liver biopsies were obtained on Day 40 and Day 68. Biopsies were conducted over two days; 2 animals from each group were biopsied per day.
In order to ascertain if the effects seen were a species-specific effect, we studied the treatment of MTP inhibitors either alone or in conjunction with Pioglitazone or Lovastatin in hyperlipidemic bonnet macaques. These animals were fed ad libitum with a WD for 40 days and then subsequently treated with MTP inhibitors for one month. […] These studies indicate that western diet increases plasma cholesterol and that these increases can be abrogated by treatment with an MTP inhibitor.

[2] = WD five weeks, treatment in last week, co-drugs with MTPi

| SMILES | cellular cholesteryl esters (liver) (mice fed western diet; [2]) | hepatic free cholesterol (mice fed western diet; [2]) | hepatic triglycerides (mice fed western diet; [2]) | plasma HDL cholesterol (mice fed western diet; [2]) | AST/ALT levels (plasma) (mice fed western diet; mouse, in vivo) | plasma cholesterol ([1]; WD 40 days) | plasma AST/ALT levels vs baseline and day 40 ([1]; WD 40 days, then treatment one month) | Hepatic cholesterol, total and free ([1]; co-drugs with MTP inhibitor) | Hepatic triglycerides (biopsies day 40 vs day 68) ([1]; co-drugs with MTP inhibitor) | AST/ALT levels (plasma) (mice fed western diet; [2]) | plasma free fatty acids (mice fed western diet; [2]) |
| --- | --- | --- | --- | --- | --- | --- | --- | --- | --- | --- | --- |
| CCc1ccc(CCOc2ccc(CC3SC(=O)NC3=O)cc2)nc1 (racemic) [pioglitazone, (RS)-5-(4-[2-(5-ethylpyridin-2-yl)ethoxy]benzyl)thiazolidine-2,4-dione] | increased | not seen | avoided increases | slightly increased | significantly lower | no further significant effect | did not show elevated | suppressed | no significant difference | – | – |
| CC[C@H](C)C(=O)O[C@H]1C[C@@H](C)C=C2C=C[C@H](C)[C@H](CC[C@@H]3C[C@@H](O)CC(=O)O3)[C@H]21 [lovastatin] | increased | not seen | not affected | slightly increased | – | no further significant effect | – | suppressed | – | significantly lower | not affected |
